Reference: PubChem BioAssay (NCI)
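1) Cells in 96-well plates. 2) Compound, 48 h, 5 concentrations. 3) Linear interpolation between surrounding doses. 4) Unreached endpoint = highest concentration. The concentration for 50% growth inhibition is given as GI50. TGI: total growth inhibition.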

Legend:
Experiment in all cases: growth of human tumour cells (NCI), 48 h
CCRF-CEM leukemia = test system: CCRF-CEM leukemia
SK-MEL-5 melanoma = test system: SK-MEL-5 melanoma
MCF7 breast = test system: MCF7 breast
RPMI-8226 leukemia = test system: RPMI-8226 leukemia
NCI-H460 lung = test system: NCI-H460 lung
SN12C renal = test system: SN12C renal
OVCAR-4 ovarian = test system: OVCAR-4 ovarian
OVCAR-5 ovarian = test system: OVCAR-5 ovarian
IGROV1 ovarian = test system: IGROV1 ovarian
MALME-3M melanoma = test system: MALME-3M melanoma
CAKI-1 renal = test system: CAKI-1 renal
EKVX NSCLC = test system: EKVX NSCLC
MDA-MB-231 breast = test system: MDA-MB-231 breast
SF-539 CNS = test system: SF-539 CNS
COLO 205 colon = test system: COLO 205 colon
BT-549 breast = test system: BT-549 breast
HCT-116 colon = test system: HCT-116 colon
HCC-2998 colon = test system: HCC-2998 colon
NCI-H226 lung = test system: NCI-H226 lung
RXF 393 renal = test system: RXF 393 renal
786-0 renal = test system: 786-0 renal
SK-MEL-2 melanoma = test system: SK-MEL-2 melanoma
NCI-H522 lung = test system: NCI-H522 lung
SW-620 colon = test system: SW-620 colon
ACHN renal = test system: ACHN renal
PC-3 prostate = test system: PC-3 prostate
HS 578T breast = test system: HS 578T breast
HOP-92 NSCLC = test system: HOP-92 NSCLC
HT29 colon = test system: HT29 colon
A549 NSCLC = test system: A549 NSCLC
NCI/ADR-RES ovarian = test system: NCI/ADR-RES ovarian
SK-MEL-28 melanoma = test system: SK-MEL-28 melanoma
DU-145 prostate = test system: DU-145 prostate
SR leukemia = test system: SR leukemia
TK-10 renal = test system: TK-10 renal
M14 melanoma = test system: M14 melanoma
OVCAR-8 ovarian = test system: OVCAR-8 ovarian
U251 CNS = test system: U251 CNS
SF-295 CNS = test system: SF-295 CNS
UACC-257 melanoma = test system: UACC-257 melanoma
MDA-MB-435 = test system: MDA-MB-435
NCI-H23 lung = test system: NCI-H23 lung
HCT-15 colon = test system: HCT-15 colon
MOLT-4 leukemia = test system: MOLT-4 leukemia
HL-60(TB) leukemia = test system: HL-60(TB) leukemia
KM12 colon = test system: KM12 colon
HOP-62 NSCLC = test system: HOP-62 NSCLC
UACC-62 melanoma = test system: UACC-62 melanoma
T-47D breast = test system: T-47D breast
SF-268 CNS = test system: SF-268 CNS
A498 renal = test system: A498 renal
UO-31 renal = test system: UO-31 renal
SK-OV-3 ovarian = test system: SK-OV-3 ovarian
SNB-19 CNS = test system: SNB-19 CNS
SNB-75 CNS = test system: SNB-75 CNS

**Q.** `C=CCN(C)S(=O)(=O)/N=C1\NC(=O)NC1=C(Cl)Cl` was tested. Which GI50 (CCRF-CEM leukemia) did it give?
**A.** 1.94 µM

**Q.** And the TGI (CCRF-CEM leukemia)?
**A.** 4.68 µM

**Q.** And the GI50 (SK-MEL-5 melanoma)?
**A.** 2 µM

**Q.** And the TGI (SK-MEL-5 melanoma)?
**A.** 4.21 µM

**Q.** What about the GI50 (MCF7 breast) of the same molecule?
**A.** 0.387 µM

**Q.** What about the TGI (MCF7 breast) of the same molecule?
**A.** > 100 µM

**Q.** What about the GI50 (RPMI-8226 leukemia) of the same molecule?
**A.** 0.404 µM

**Q.** And the TGI (RPMI-8226 leukemia)?
**A.** 9.84 µM

**Q.** What about the GI50 (NCI-H460 lung) of the same molecule?
**A.** 2.71 µM

**Q.** And the TGI (NCI-H460 lung)?
**A.** 7.1 µM

**Q.** And the GI50 (SN12C renal)?
**A.** 1.77 µM

**Q.** What about the TGI (SN12C renal) of the same molecule?
**A.** 3.29 µM

**Q.** And the GI50 (OVCAR-4 ovarian)?
**A.** 1.82 µM

**Q.** And the TGI (OVCAR-4 ovarian)?
**A.** 3.36 µM

**Q.** And the GI50 (OVCAR-5 ovarian)?
**A.** 1.69 µM

**Q.** What about the TGI (OVCAR-5 ovarian) of the same molecule?
**A.** 3.13 µM

**Q.** And the GI50 (IGROV1 ovarian)?
**A.** 1.84 µM

**Q.** What about the TGI (IGROV1 ovarian) of the same molecule?
**A.** 3.65 µM

**Q.** And the GI50 (MALME-3M melanoma)?
**A.** 1.85 µM

**Q.** And the TGI (MALME-3M melanoma)?
**A.** 3.58 µM

**Q.** And the GI50 (CAKI-1 renal)?
**A.** 1.72 µM

**Q.** And the TGI (CAKI-1 renal)?
**A.** 3.15 µM

**Q.** What about the GI50 (EKVX NSCLC) of the same molecule?
**A.** 1.82 µM

**Q.** What about the TGI (EKVX NSCLC) of the same molecule?
**A.** 3.64 µM

**Q.** What about the GI50 (MDA-MB-231 breast) of the same molecule?
**A.** 1.86 µM

**Q.** What about the TGI (MDA-MB-231 breast) of the same molecule?
**A.** 3.42 µM

**Q.** What about the GI50 (SF-539 CNS) of the same molecule?
**A.** 1.79 µM

**Q.** And the TGI (SF-539 CNS)?
**A.** 3.3 µM

**Q.** And the GI50 (COLO 205 colon)?
**A.** 2.02 µM

**Q.** And the TGI (COLO 205 colon)?
**A.** 4.37 µM

**Q.** And the GI50 (BT-549 breast)?
**A.** 2.1 µM

**Q.** What about the TGI (BT-549 breast) of the same molecule?
**A.** 4.49 µM

**Q.** And the GI50 (HCT-116 colon)?
**A.** 1.84 µM

**Q.** What about the TGI (HCT-116 colon) of the same molecule?
**A.** 3.55 µM

**Q.** And the GI50 (HCC-2998 colon)?
**A.** 1.76 µM

**Q.** What about the TGI (HCC-2998 colon) of the same molecule?
**A.** 3.43 µM

**Q.** And the GI50 (NCI-H226 lung)?
**A.** 2.09 µM

**Q.** And the TGI (NCI-H226 lung)?
**A.** 4.63 µM

**Q.** What about the GI50 (RXF 393 renal) of the same molecule?
**A.** 1.7 µM

**Q.** What about the TGI (RXF 393 renal) of the same molecule?
**A.** 3.37 µM

**Q.** And the GI50 (786-0 renal)?
**A.** 2.39 µM

**Q.** What about the TGI (786-0 renal) of the same molecule?
**A.** 5.79 µM

**Q.** What about the GI50 (SK-MEL-2 melanoma) of the same molecule?
**A.** 2.9 µM

**Q.** And the TGI (SK-MEL-2 melanoma)?
**A.** 7.76 µM

**Q.** And the GI50 (NCI-H522 lung)?
**A.** 1.97 µM

**Q.** What about the TGI (NCI-H522 lung) of the same molecule?
**A.** 4.16 µM

**Q.** And the GI50 (SW-620 colon)?
**A.** 1.9 µM

**Q.** What about the TGI (SW-620 colon) of the same molecule?
**A.** 3.72 µM

**Q.** What about the GI50 (ACHN renal) of the same molecule?
**A.** 1.77 µM

**Q.** What about the TGI (ACHN renal) of the same molecule?
**A.** 3.18 µM

**Q.** And the GI50 (PC-3 prostate)?
**A.** 2.35 µM

**Q.** What about the TGI (PC-3 prostate) of the same molecule?
**A.** 6.2 µM

**Q.** And the GI50 (HS 578T breast)?
**A.** 3.64 µM

**Q.** What about the TGI (HS 578T breast) of the same molecule?
**A.** 30.1 µM

**Q.** What about the GI50 (HOP-92 NSCLC) of the same molecule?
**A.** 1.76 µM

**Q.** What about the TGI (HOP-92 NSCLC) of the same molecule?
**A.** 3.4 µM

**Q.** And the GI50 (HT29 colon)?
**A.** 2.15 µM

**Q.** And the TGI (HT29 colon)?
**A.** 4.87 µM

**Q.** And the GI50 (A549 NSCLC)?
**A.** 5.27 µM

**Q.** And the TGI (A549 NSCLC)?
**A.** 24 µM

**Q.** And the GI50 (NCI/ADR-RES ovarian)?
**A.** 2.12 µM

**Q.** And the TGI (NCI/ADR-RES ovarian)?
**A.** 4.91 µM

**Q.** And the GI50 (SK-MEL-28 melanoma)?
**A.** 1.78 µM

**Q.** What about the TGI (SK-MEL-28 melanoma) of the same molecule?
**A.** 3.26 µM

**Q.** And the GI50 (DU-145 prostate)?
**A.** 4.08 µM

**Q.** What about the TGI (DU-145 prostate) of the same molecule?
**A.** 13.6 µM

**Q.** And the GI50 (SR leukemia)?
**A.** 0.693 µM

**Q.** What about the TGI (SR leukemia) of the same molecule?
**A.** 6.68 µM

**Q.** What about the GI50 (TK-10 renal) of the same molecule?
**A.** 9.07 µM

**Q.** And the TGI (TK-10 renal)?
**A.** > 100 µM

**Q.** And the GI50 (M14 melanoma)?
**A.** 1.89 µM

**Q.** What about the TGI (M14 melanoma) of the same molecule?
**A.** 3.73 µM

**Q.** And the GI50 (OVCAR-8 ovarian)?
**A.** 2.33 µM

**Q.** What about the TGI (OVCAR-8 ovarian) of the same molecule?
**A.** 5.69 µM

**Q.** And the GI50 (U251 CNS)?
**A.** 1.87 µM

**Q.** What about the TGI (U251 CNS) of the same molecule?
**A.** 4.05 µM

**Q.** What about the GI50 (SF-295 CNS) of the same molecule?
**A.** 13.6 µM

**Q.** And the TGI (SF-295 CNS)?
**A.** 26.7 µM

**Q.** And the GI50 (UACC-257 melanoma)?
**A.** 3.56 µM

**Q.** And the TGI (UACC-257 melanoma)?
**A.** 17 µM

**Q.** What about the GI50 (MDA-MB-435) of the same molecule?
**A.** 1.93 µM

**Q.** And the TGI (MDA-MB-435)?
**A.** 3.86 µM

**Q.** And the GI50 (NCI-H23 lung)?
**A.** 1.85 µM

**Q.** What about the TGI (NCI-H23 lung) of the same molecule?
**A.** 3.6 µM

**Q.** What about the GI50 (HCT-15 colon) of the same molecule?
**A.** 1.63 µM

**Q.** And the TGI (HCT-15 colon)?
**A.** 3.22 µM

**Q.** And the GI50 (MOLT-4 leukemia)?
**A.** 2.36 µM

**Q.** What about the TGI (MOLT-4 leukemia) of the same molecule?
**A.** 5.93 µM

**Q.** And the GI50 (HL-60(TB) leukemia)?
**A.** 2.06 µM

**Q.** What about the TGI (HL-60(TB) leukemia) of the same molecule?
**A.** 5.31 µM

**Q.** And the GI50 (KM12 colon)?
**A.** 0.437 µM

**Q.** What about the TGI (KM12 colon) of the same molecule?
**A.** 25.6 µM

**Q.** And the GI50 (HOP-62 NSCLC)?
**A.** 3.28 µM

**Q.** What about the TGI (HOP-62 NSCLC) of the same molecule?
**A.** 14.4 µM

**Q.** And the GI50 (UACC-62 melanoma)?
**A.** 1.75 µM

**Q.** And the TGI (UACC-62 melanoma)?
**A.** 3.39 µM

**Q.** What about the GI50 (T-47D breast) of the same molecule?
**A.** 3.25 µM

**Q.** What about the TGI (T-47D breast) of the same molecule?
**A.** > 100 µM

**Q.** What about the GI50 (SF-268 CNS) of the same molecule?
**A.** 3.17 µM

**Q.** What about the TGI (SF-268 CNS) of the same molecule?
**A.** 10.7 µM

**Q.** And the GI50 (A498 renal)?
**A.** 12 µM

**Q.** And the TGI (A498 renal)?
**A.** 24.6 µM

**Q.** What about the GI50 (UO-31 renal) of the same molecule?
**A.** 2.82 µM

**Q.** What about the TGI (UO-31 renal) of the same molecule?
**A.** 11.9 µM

**Q.** What about the GI50 (SK-OV-3 ovarian) of the same molecule?
**A.** 17 µM

**Q.** What about the TGI (SK-OV-3 ovarian) of the same molecule?
**A.** 31 µM

**Q.** And the GI50 (SNB-19 CNS)?
**A.** 2.88 µM

**Q.** What about the TGI (SNB-19 CNS) of the same molecule?
**A.** 9.29 µM

**Q.** What about the GI50 (SNB-75 CNS) of the same molecule?
**A.** 1.82 µM

**Q.** And the TGI (SNB-75 CNS)?
**A.** 13.1 µM
